Test results from patent US20170050957A1, “4-AMINO-6-(HETEROCYCLIC)PICOLINATES AND 6-AMINO-2-(HETEROCYCLIC)PYRIMIDINE-4-CARBOXYLATES AND THEIR USE AS HERBICIDES” (Dow AgroSciences LLC, priority 2013, published 2017).

System: Wheat and Barley and test plant species
Assay: Post-emergent Test III, herbicidal activity in wheat and barley (Table 17; visual injury, GR20/GR50/GR80/GR90)
Type: in vivo
Details: 21 d; for Visual Growth Reduction (%) 21 Days After Application, CIRAR / Visual Growth Reduction (%) 21 Days After Application, GALAP / Visual Growth Reduction (%) 21 Days After Application, HORVS / Visual Growth Reduction (%) 21 Days After Application, KCHSC / Visual Growth Reduction (%) 21 Days After Application, LAMPU / Visual Growth Reduction (%) 21 Days After Application, MATCH / Visual Growth Reduction (%) 21 Days After Application, PAPRH / Visual Growth Reduction (%) 21 Days After Application, SASKR / Visual Growth Reduction (%) 21 Days After Application, SINAR / Visual Growth Reduction (%) 21 Days After Application, TRZAS / Visual Growth Reduction (%) 21 Days After Application, VERPE / Visual Growth Reduction (%) 21 Days After Application, VIOTR: post-emergent
Experimental: Post-emergent Test III. Seeds of the desired test plant species were planted in Sun Gro MetroMix® 306 planting mixture, which typically has a pH of 6.0 to 6.8 and an organic matter content of about 30 percent, in plastic pots with a surface area of 103.2 square centimeters (cm^2). When required to ensure good germination and healthy plants, a fungicide treatment and/or other chemical or physical treatment was applied. The plants were grown for 7-36 days (d) in a greenhouse with an approximate 14 hour (h) photoperiod which was maintained at about 18° C. during the day and 17° C. during the night. Nutrients and water were added on a regular basis and supplemental lighting was provided with overhead metal halide 1000-Watt lamps as necessary. The plants were employed for testing when they reached the second or third true leaf stage.
A weighed amount, determined by the highest rate to be tested, of each test compound was placed in a 25 mL glass vial and was dissolved in 4 mL of a 97:3 v/v mixture of acetone and DMSO to obtain concentrated stock solutions. […] The concentrated stock solutions obtained were diluted with 20 mL of an aqueous mixture containing acetone, water, isopropyl alcohol, DMSO, Agri-Dex crop oil concentrate, and X-77 surfactant in a 48:39:10:1.5:1.5:0.02 v/v ratio to obtain spray solutions containing the highest application rates. Additional application rates were obtained by serial dilution of 12 mL of the high rate solution into a solution containing 2 mL of 97:3 v/v mixture of acetone and DMSO and 10 mL of an aqueous mixture containing acetone, water, isopropyl alcohol, DMSO, Agri-Dex crop oil concentrate, and X-77 surfactant in a 48:39:10:1.5:1.5:0.02 v/v ratio to obtain 1/2×, 1/4×, 1/8× and 1/16× rates of the high rate. Compound requirements are based upon a 12 mL application volume at a rate of 187 liters per hectare (L/ha). Formulated compounds were applied to the plant material with an overhead Mandel track sprayer equipped with 8002E nozzles calibrated to deliver 187 L/ha over an application area of 0.503 square meters at a spray height of 18 inches (43 cm) above the average plant canopy height. Control plants were sprayed in the same manner with the solvent blank.
The treated plants and control plants were placed in a greenhouse as described above and watered by subirrigation to prevent wash-off of the test compounds. After 21 d, the condition of the test plants as compared with that of the untreated plants was determined visually and scored on a scale of 0 to 100 percent where 0 corresponds to no injury and 100 corresponds to complete kill. By applying the well-accepted probit analysis as described by J. Berkson in Journal of the American Statistical […], 48, 565 (1953) and by D. Finney in “Probit Analysis” Cambridge University Press (1952), the above data can be used to calculate GR20, GR50, GR80 and GR90 values, which are defined as growth reduction factors that correspond to the effective dose of herbicide required to kill or control 20 percent, 50 percent, 80 percent or 90 percent, respectively, of a target plant.

SMILES: COC(=O)c1nc(-c2ccc(Cl)c3ccoc23)c(F)c(N)c1Cl [Compound 2.24]
- Visual Growth Reduction (%) 21 Days After Application, CIRAR (CIRAR, 17.5 g ai/ha): D (60-74)
- Visual Growth Reduction (%) 21 Days After Application, CIRAR (CIRAR, 35 g ai/ha): C (75-84)
- Visual Growth Reduction (%) 21 Days After Application, CIRAR (CIRAR, 70 g ai/ha): B (85-94)
- GR50, CIRAR (CIRAR, dose for 50 percent growth reduction, probit analysis): 14 g ai/ha
- GR80, CIRAR (CIRAR, dose for 80 percent growth reduction, probit analysis): 35 g ai/ha
- GR90, CIRAR (CIRAR, dose for 90 percent growth reduction, probit analysis): 57 g ai/ha
- Visual Growth Reduction (%) 21 Days After Application, GALAP (GALAP, 17.5 g ai/ha): D (60-74)
- Visual Growth Reduction (%) 21 Days After Application, GALAP (GALAP, 35 g ai/ha): B (85-94)
- Visual Growth Reduction (%) 21 Days After Application, GALAP (GALAP, 70 g ai/ha): B (85-94)
- GR50, GALAP (GALAP, dose for 50 percent growth reduction, probit analysis): 7 g ai/ha
- GR80, GALAP (GALAP, dose for 80 percent growth reduction, probit analysis): 23 g ai/ha
- GR90, GALAP (GALAP, dose for 90 percent growth reduction, probit analysis): 44 g ai/ha
- Visual Growth Reduction (%) 21 Days After Application, HORVS (HORVS, 17.5 g ai/ha): G (0-29)
- Visual Growth Reduction (%) 21 Days After Application, HORVS (HORVS, 35 g ai/ha): G (0-29)
- Visual Growth Reduction (%) 21 Days After Application, HORVS (HORVS, 70 g ai/ha): G (0-29)
- GR20, HORVS (HORVS, dose for 20 percent growth reduction, probit analysis): 66 g ai/ha
- Visual Growth Reduction (%) 21 Days After Application, KCHSC (KCHSC, 17.5 g ai/ha): D (60-74)
- Visual Growth Reduction (%) 21 Days After Application, KCHSC (KCHSC, 35 g ai/ha): C (75-84)
- Visual Growth Reduction (%) 21 Days After Application, KCHSC (KCHSC, 70 g ai/ha): B (85-94)
- GR50, KCHSC (KCHSC, dose for 50 percent growth reduction, probit analysis): 4 g ai/ha
- GR80, KCHSC (KCHSC, dose for 80 percent growth reduction, probit analysis): 33 g ai/ha
- GR90, KCHSC (KCHSC, dose for 90 percent growth reduction, probit analysis): 103 g ai/ha
- Visual Growth Reduction (%) 21 Days After Application, LAMPU (LAMPU, 17.5 g ai/ha): E (45-59)
- Visual Growth Reduction (%) 21 Days After Application, LAMPU (LAMPU, 35 g ai/ha): D (60-74)
- Visual Growth Reduction (%) 21 Days After Application, LAMPU (LAMPU, 70 g ai/ha): C (75-84)
- GR50, LAMPU (LAMPU, dose for 50 percent growth reduction, probit analysis): 15 g ai/ha
- GR80, LAMPU (LAMPU, dose for 80 percent growth reduction, probit analysis): 93 g ai/ha
- GR90, LAMPU (LAMPU, dose for 90 percent growth reduction, probit analysis): >140 g ai/ha
- Visual Growth Reduction (%) 21 Days After Application, MATCH (MATCH, 17.5 g ai/ha): G (0-29)
- Visual Growth Reduction (%) 21 Days After Application, MATCH (MATCH, 35 g ai/ha): G (0-29)
- Visual Growth Reduction (%) 21 Days After Application, MATCH (MATCH, 70 g ai/ha): G (0-29)
- GR50, MATCH (MATCH, dose for 50 percent growth reduction, probit analysis): 114 g ai/ha
- GR80, MATCH (MATCH, dose for 80 percent growth reduction, probit analysis): >140 g ai/ha
- GR90, MATCH (MATCH, dose for 90 percent growth reduction, probit analysis): >140 g ai/ha
- Visual Growth Reduction (%) 21 Days After Application, PAPRH (PAPRH, 17.5 g ai/ha): D (60-74)
- Visual Growth Reduction (%) 21 Days After Application, PAPRH (PAPRH, 35 g ai/ha): D (60-74)
- Visual Growth Reduction (%) 21 Days After Application, PAPRH (PAPRH, 70 g ai/ha): C (75-84)
- GR50, PAPRH (PAPRH, dose for 50 percent growth reduction, probit analysis): 24 g ai/ha
- GR80, PAPRH (PAPRH, dose for 80 percent growth reduction, probit analysis): 52 g ai/ha
- GR90, PAPRH (PAPRH, dose for 90 percent growth reduction, probit analysis): 77 g ai/ha
- Visual Growth Reduction (%) 21 Days After Application, SASKR (SASKR, 17.5 g ai/ha): D (60-74)
- Visual Growth Reduction (%) 21 Days After Application, SASKR (SASKR, 35 g ai/ha): B (85-94)
- Visual Growth Reduction (%) 21 Days After Application, SASKR (SASKR, 70 g ai/ha): B (85-94)
- GR50, SASKR (SASKR, dose for 50 percent growth reduction, probit analysis): 3 g ai/ha
- GR80, SASKR (SASKR, dose for 80 percent growth reduction, probit analysis): 28 g ai/ha
- GR90, SASKR (SASKR, dose for 90 percent growth reduction, probit analysis): 95 g ai/ha
- Visual Growth Reduction (%) 21 Days After Application, SINAR (SINAR, 17.5 g ai/ha): B (85-94)
- Visual Growth Reduction (%) 21 Days After Application, SINAR (SINAR, 35 g ai/ha): A (95-100)
- Visual Growth Reduction (%) 21 Days After Application, SINAR (SINAR, 70 g ai/ha): A (95-100)
- GR50, SINAR (SINAR, dose for 50 percent growth reduction, probit analysis): 6 g ai/ha
- GR80, SINAR (SINAR, dose for 80 percent growth reduction, probit analysis): 13 g ai/ha
- GR90, SINAR (SINAR, dose for 90 percent growth reduction, probit analysis): 19 g ai/ha
- Visual Growth Reduction (%) 21 Days After Application, TRZAS (TRZAS, 17.5 g ai/ha): G (0-29)
- Visual Growth Reduction (%) 21 Days After Application, TRZAS (TRZAS, 35 g ai/ha): G (0-29)
- Visual Growth Reduction (%) 21 Days After Application, TRZAS (TRZAS, 70 g ai/ha): F (30-44)
- GR20, TRZAS (TRZAS, dose for 20 percent growth reduction, probit analysis): 52 g ai/ha
- Visual Growth Reduction (%) 21 Days After Application, VERPE (VERPE, 17.5 g ai/ha): F (30-44)
- Visual Growth Reduction (%) 21 Days After Application, VERPE (VERPE, 35 g ai/ha): D (60-74)
- Visual Growth Reduction (%) 21 Days After Application, VERPE (VERPE, 70 g ai/ha): C (75-84)
- GR50, VERPE (VERPE, dose for 50 percent growth reduction, probit analysis): 30 g ai/ha
- GR80, VERPE (VERPE, dose for 80 percent growth reduction, probit analysis): 66 g ai/ha
- GR90, VERPE (VERPE, dose for 90 percent growth reduction, probit analysis): 100 g ai/ha
- Visual Growth Reduction (%) 21 Days After Application, VIOTR (VIOTR, 17.5 g ai/ha): E (45-59)
- Visual Growth Reduction (%) 21 Days After Application, VIOTR (VIOTR, 35 g ai/ha): D (60-74)
- Visual Growth Reduction (%) 21 Days After Application, VIOTR (VIOTR, 70 g ai/ha): C (75-84)
- GR50, VIOTR (VIOTR, dose for 50 percent growth reduction, probit analysis): 24 g ai/ha
- GR80, VIOTR (VIOTR, dose for 80 percent growth reduction, probit analysis): 78 g ai/ha
- GR90, VIOTR (VIOTR, dose for 90 percent growth reduction, probit analysis): >140 g ai/ha
